Patent US11273152B2, “TRPV2 antagonists” (Instituto de Medicina Molecular João Lobo Antunes, priority 2017, dated 2022)
“Also recorded” adds a separate entry of the source.

What was measured:
TRPV1 = TRPV1 (Homo sapiens, UniProt Q8NER1); test: Fluorescence cell-based assay, TRPV1; settings: calcium 5 dye, duplicate
Procedure: (§1) The assays were performed at SB Discovery (Glasgow, UK) on a fee-for-service basis. Human TRP cells were trypsinised, counted and seeded in black, clear-bottomed 96 well plates at a density of 50,000 cells per well in 100 μL volume and incubated overnight. Next day, the cells were loaded with calcium 5 dye or membrane potential dye. TRPV1-5, TRPA1, TRPM2, TRPM3, and TRPM8 were tested using the calcium 5 dye. TRPC1, TRPC3-7, and TRPM4-5 were tested using the membrane potential dye. Both dye solutions were made up in HEPES buffered Hank's balanced salt solution (HBSS). Dye solution (90 μL) was added to the wells and incubated at 37° C. for 1 hour. Test compounds and standard inhibitors (10 μL) were then added to the wells and incubated at room temperature for 10 minutes. The plates were then placed in the flexstation and fluorescence monitored every 1.52 seconds. After 20 seconds agonist was added and the fluorescence monitored for 2 minutes at 485 nm/525 nm and 530 nm/565 nm, Ex/Em, for the calcium 5 dye and the membrane potential dye respectively. Controls-TRPV1: capsazepine; TRPV2: tranilast; TRPV3: ruthenium red; TRPV4: ruthenium red; TRPV5: Gd^3+; TRPA1, ruthenium red; TRPC1: Gd^3+; TRPC3: Pyr3; TRPC4: ML 204; TRPC5: ML 204; TRPC6: ML 204; TRPC7: SKF 96365; TRPM2: 2-APB; TRPM3: Mef acid; TRPM4: clotrimazole; TRPM5: TPPO; TRPM8: 2-APB. […]

U251 cells = test: Viability of U251 cells transiently over-expressing hTRPV2; format: cell-based, human; settings: 5 μM PL, 24 hours, p=0.0002, n=9, listed as PL
Procedure: 50,000 U251 cells were seeded in each well of a 24 well plate. The next day cells were transfected with hTRPV2-RFP plasmid. After incubating for 48 hours the media was changed and PL was added at 5 and 10 μM. 24 hours later cell viability was assessed using CellTitre-Blue (Promega). Transfection efficiency was assessed using flow cytometry.
Cells were harvested from plates by washing with media (HEK293) or TrypLE express (Gibco). The media was removed after centrifugation and the cells were washed twice with binding buffer before being incubated for 30 minutes at room temperature with Annexin V-APC (eBiosciences, 1:100) and 7-AAD (Pharmigen, 1:50). Samples were diluted with binding buffer and analyzed by flow cytometry using BD LSRFortessa X-20 with FACS Diva software. Samples with single stains were used as controls.

TRPV2 = biological target: T1, TRPV2 (Homo sapiens, UniProt Q9Y5S1); test: Intracellular calcium imaging (Fura-2 AM) in HepG2 cells; format: cell-based; settings: 1 at 5 μM
T1 sequence (Q9Y5S1 1-764): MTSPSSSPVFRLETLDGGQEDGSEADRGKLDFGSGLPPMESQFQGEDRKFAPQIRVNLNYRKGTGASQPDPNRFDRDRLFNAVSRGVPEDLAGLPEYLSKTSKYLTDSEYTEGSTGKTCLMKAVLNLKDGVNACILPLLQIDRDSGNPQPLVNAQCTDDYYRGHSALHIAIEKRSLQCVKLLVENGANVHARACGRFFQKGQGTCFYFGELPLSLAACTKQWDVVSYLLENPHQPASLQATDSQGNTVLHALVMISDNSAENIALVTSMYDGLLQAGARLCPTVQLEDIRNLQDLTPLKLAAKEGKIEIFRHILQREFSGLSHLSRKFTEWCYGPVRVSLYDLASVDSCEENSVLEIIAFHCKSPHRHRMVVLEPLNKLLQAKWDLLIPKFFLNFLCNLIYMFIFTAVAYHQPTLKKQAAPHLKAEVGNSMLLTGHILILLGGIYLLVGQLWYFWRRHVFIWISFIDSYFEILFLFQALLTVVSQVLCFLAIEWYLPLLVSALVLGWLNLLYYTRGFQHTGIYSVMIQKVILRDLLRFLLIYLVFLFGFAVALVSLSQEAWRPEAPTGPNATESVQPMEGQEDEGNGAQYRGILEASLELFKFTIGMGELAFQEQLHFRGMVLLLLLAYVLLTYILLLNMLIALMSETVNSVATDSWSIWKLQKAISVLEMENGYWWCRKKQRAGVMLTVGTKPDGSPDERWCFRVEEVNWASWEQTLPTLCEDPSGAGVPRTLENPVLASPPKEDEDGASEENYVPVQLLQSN
Procedure: (§2) Cells (ATCC) were grown to 50% confluency in DMEM (Gibco) supplemented with 10% FBS (Gibco), GlutaMax (Gibco), MEM and NEAA (Gibco), 4.5 g/L glucose and 0.11 g/L sodium pyruvate. Cells were seeded in μ-ibidi 8 well plates and transfected with TRPV2-RFP^34 (kindly gifted by Prof. Itaru Kojimu Gunma University, Japan). After 48 h of incubation, cells were subjected to calcium imaging. Intracellular calcium measurements were performed with Fura-2 AM (Life Technologies) and modified from previously described studies.^12 In short, 1 hour before the measurement, cells were loaded with 5 μM Fura-2-AM for 45 minutes. Cell medium was replaced by Tyrod's solution (119 mM NaCl, 5 mM KCl, 2 mM CaCl2, 2 mM MgCl2, 6 g/L glucose, 25 mM HEPES pH 7.4). Simultaneously, the respective treatment was added to the cells (final concentration of 1% DMSO (control), 5 μM piperlongumine and 10 μM tranilast) and cells were allowed to re-adjustment for 15 minutes. Fura-2 AM emissions from 340 nm and 380 nm excitation were recorded for 1 minute before TRPV2 was activated by addition of 4 μM or 20 μM cannabidiol (CBD). Image analysis was done using the MetaFluor Analyst software. The statistical analysis was performed with astatsa.com. After calcium imaging acquisition, the cells were immediately fixed with 4% paraformaldehyde for 15 min. […]

HepG2 cells = test: Wound-healing scratch assay, HepG2; format: cell-based; settings: 24-hour
[1] = biological target: T2, human TRPV2-RFP fusion protein (Homo sapiens, UniProt Q9Y5S1); test: Intracellular calcium imaging in HEK293 transfected with TRPV2-RFP; format: cell-based; settings: CBD 4 μM; 1 at 5 μM; 300 s post stimulation
T2 construct: Itaru Kojima, Gunma University; host or cells: HEK293, transient
Procedure: as §2

[2] = Dynamic light scattering, colloidal aggregation; format: physicochemical; settings: water, 25° C.
Procedure: Dynamic light scattering (Zetasizer Nano S, Malvern, UK) was used to determine compound colloidal aggregation. The particle sizes were measured at 25° C. Water solubility was measured as described elsewhere with successive measurements within 60 minutes.^35 A 100 mM stock solution of piperlongumine was prepared in DMSO, following dilution to deionized water to obtain an analyte solution of 100 μM (0.1% DMSO). Colloidal aggregation was measured through sequential dilutions.

TRPA1 = TRPA1 (Homo sapiens, UniProt O75762); test: Fluorescence cell-based assay, TRPA1; settings: calcium 5 dye, spread in log units, duplicate
Sequence of TRPA1 (O75762 whole entry): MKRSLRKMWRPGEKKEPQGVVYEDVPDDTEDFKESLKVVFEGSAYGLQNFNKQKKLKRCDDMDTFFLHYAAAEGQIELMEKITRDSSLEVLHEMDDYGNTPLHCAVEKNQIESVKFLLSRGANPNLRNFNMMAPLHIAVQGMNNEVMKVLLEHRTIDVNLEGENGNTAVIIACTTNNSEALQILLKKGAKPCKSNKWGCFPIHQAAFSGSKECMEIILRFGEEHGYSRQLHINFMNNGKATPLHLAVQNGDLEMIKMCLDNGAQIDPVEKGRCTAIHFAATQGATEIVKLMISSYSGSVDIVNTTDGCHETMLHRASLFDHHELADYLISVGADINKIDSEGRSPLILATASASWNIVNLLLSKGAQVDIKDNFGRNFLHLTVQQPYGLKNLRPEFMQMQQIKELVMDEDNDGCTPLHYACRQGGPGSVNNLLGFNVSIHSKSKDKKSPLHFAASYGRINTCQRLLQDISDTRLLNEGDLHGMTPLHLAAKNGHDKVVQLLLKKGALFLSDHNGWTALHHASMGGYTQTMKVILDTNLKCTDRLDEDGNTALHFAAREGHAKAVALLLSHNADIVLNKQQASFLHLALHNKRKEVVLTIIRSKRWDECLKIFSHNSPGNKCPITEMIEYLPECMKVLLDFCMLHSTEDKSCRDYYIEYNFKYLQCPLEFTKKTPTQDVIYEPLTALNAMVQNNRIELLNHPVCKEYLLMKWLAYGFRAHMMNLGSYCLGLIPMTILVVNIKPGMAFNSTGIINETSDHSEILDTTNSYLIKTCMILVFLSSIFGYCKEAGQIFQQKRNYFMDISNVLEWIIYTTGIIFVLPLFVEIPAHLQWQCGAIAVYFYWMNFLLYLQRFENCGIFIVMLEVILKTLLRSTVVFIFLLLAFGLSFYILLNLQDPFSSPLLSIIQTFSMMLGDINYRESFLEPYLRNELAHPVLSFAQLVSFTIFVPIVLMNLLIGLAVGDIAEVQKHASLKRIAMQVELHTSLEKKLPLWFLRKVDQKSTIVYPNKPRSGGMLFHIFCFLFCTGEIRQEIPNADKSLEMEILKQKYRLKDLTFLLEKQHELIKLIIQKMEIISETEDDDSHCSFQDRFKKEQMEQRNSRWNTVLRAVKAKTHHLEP
Procedure: as §1

Sequence of TRPV1 (Q8NER1 whole entry): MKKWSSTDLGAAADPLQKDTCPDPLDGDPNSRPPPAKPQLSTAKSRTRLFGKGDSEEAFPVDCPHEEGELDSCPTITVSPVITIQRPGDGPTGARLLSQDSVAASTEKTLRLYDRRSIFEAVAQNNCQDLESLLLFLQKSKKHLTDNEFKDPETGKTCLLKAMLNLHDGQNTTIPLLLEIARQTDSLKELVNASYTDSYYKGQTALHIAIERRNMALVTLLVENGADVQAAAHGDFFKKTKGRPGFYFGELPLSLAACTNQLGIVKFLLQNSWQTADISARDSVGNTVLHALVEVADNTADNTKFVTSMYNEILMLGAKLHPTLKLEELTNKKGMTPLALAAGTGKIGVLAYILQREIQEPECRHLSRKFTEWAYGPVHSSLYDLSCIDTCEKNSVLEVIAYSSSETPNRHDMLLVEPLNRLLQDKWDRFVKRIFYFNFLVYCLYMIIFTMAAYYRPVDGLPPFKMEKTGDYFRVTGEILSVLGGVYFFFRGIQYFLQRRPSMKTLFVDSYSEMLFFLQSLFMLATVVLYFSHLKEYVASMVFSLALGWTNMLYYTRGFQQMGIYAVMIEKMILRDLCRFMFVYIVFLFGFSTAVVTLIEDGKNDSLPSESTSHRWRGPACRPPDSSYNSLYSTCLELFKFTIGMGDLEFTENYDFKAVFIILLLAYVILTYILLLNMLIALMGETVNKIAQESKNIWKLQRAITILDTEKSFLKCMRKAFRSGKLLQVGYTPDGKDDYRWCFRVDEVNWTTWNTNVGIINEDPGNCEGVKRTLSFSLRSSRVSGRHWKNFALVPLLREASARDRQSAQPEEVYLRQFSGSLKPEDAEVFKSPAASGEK

## COc1cc(/C=C/C(=O)N2CCC=CC2=O)cc(OC)c1OC [Compound 1, piperlongumine]
TRPV1
  IC50: > 100 µM
U251 cells
  Viability of hTRPV2-transfected cells vs non-transfected controls: reduced viability compared to the non-transfected controls; also recorded: increases PL toxicity
TRPV2; CBD 4 μM
  Inhibition of CBD evoked calcium influx in HepG2 cells: No statistically significant difference is observed between all samples
TRPV2; CBD 20 μM, 120 s post stimulation
  Inhibition of CBD evoked calcium influx in HepG2 cells: significantly inhibited; also recorded: significant difference between control and 1 (p<0.01)
HepG2 cells; 5 μM
  Cell death during wound-healing assay: did not induce significant cell death
HepG2 cells; 1 at 5 μM
  Cell migration, wound healing: significantly reduced migration; also recorded: inhibits cancer cell migration in a Ca^2+-dependent manner
[1]
  Inhibition of CBD evoked calcium influx in transfected HEK293 cells: significant difference between control and 1 (p<0.001)
[2]
  Colloidal aggregation (dynamic light scattering): absence of colloidal aggregate-induced inhibition
TRPA1
  IC50: 39 ± 0.15 µM
